Like-named read-outs stand apart in the source and are kept apart here. Non-standard residues stand in square brackets, D forms with d. Chg = N[C@H](C(=O)O)C1CCCCC1; NMeV = CN[C@H](C(=O)O)C(C)C

One test addresses T1, human αvβ3-integrin (Homo sapiens, UniProt P05106+P06756).
T1 construct: purchased R&D 3050-AV-050
Put plainly: ELISA-type solid-phase binding assay: soluble αvβ3 competing for immobilized vitronectin. As to conditions: competitive ELISA-type assay, referenced to internal standard cilengitide (L2).

For the next test, the target named is T2, human α5β1-integrin (Homo sapiens, UniProt P05556+P08648).
T2 construct: purchased R&D 3230-A5-050
The test can be described thus: ELISA-type solid-phase binding assay: soluble α5β1 competing for immobilized fibronectin. The procedure: Prior to the biological evaluation of the ligands, their specificity and subtype-selective affinity was analyzed by an ELISA (enzyme-linked immune sorbent assay)-type solid-phase ligand binding assay[59] by measuring the competitive binding of soluble purified integrins in the presence of the respective ligands to plate-immobilized purified ECM proteins, as described in Experimental Section: vitronectin (for αvβ3-directed ligands), fibronectin (for α5β1-directed ligands), or the latency-associated peptide (LAP) of transforming growth factor-β (TGF-β) (for αvβ6-directed ligands). Then, we determined whether Cy5.5 conjugation of ligands led to altered ligand binding affinities and integrin subtype selectivity compared to the unlabeled compounds. In the following, we describe in detail the alterations detected.
(3) 2.0 μg/mL mouse-anti-human CD51/61 (BD Biosciences, Franklin Lakes, New Jersey, USA; #555504). (4) 2.0 μg/mL anti-mouse IgG-POD (Sigma-Aldrich, #A9044-2ML). Integrin αvβ6: (1) 0.4 μg/mL LAP (TGF-β) (R&D, #246-LP-025), (2) 0.5 μg/mL human αvβ6 (R&D, #3817-AV-050), (3) 1:500 dilution mouse-anti-human αv (MAB1978) (Merck Millipore, #MAB1978), (4) 2.0 μg/mL anti-mouse IgG-POD (Sigma-Aldrich, #A9044-2ML). Integrin α5β1: (1) 0.5 μg/mL human fibronectin (Sigma-Aldrich, #F0895-1MG), (2) 2.0 μg/mL human α5β1 (R&D, 3230-A5-050), (3) 1.0 μg/mL mouse-anti-human CD49e (BD Biosciences, #555651), (4) 2.0 μg/mL anti-mouse IgG-POD (Sigma-Aldrich, #A9044-2 ML). For Western blot analysis, the following antibodies were used: (p-)p44/42^(erk-1/2) (1) 1:300 dilution of rabbit-anti-human p44/42^(erk-1/2) antibody (Cell Signaling Technology, Frankfurt, Germany, #9102) in 3% (w/v) bovine serum albumin (BSA)/TBS-T, (2) 1:5,000 dilution goat-anti-rabbit horseradish-conjugated secondary antibody in 1% (w/v) BSA/TBS-T. Phospho-p44/42^(erk-1/2): (1) 1:200 dilution rabbit-anti-human p44/42^(erk-1/2) (Thr202/Tyr204) antibody (Cell Signaling Technology, #9101) in 3% (w/v) BSA/TBS-T, (2) 1:5,000 dilution goat-anti-rabbit horseradish-conjugated secondary antibody in 1% (w/v) BSA/TBS-T. FAK: (1) 1:300 dilution mouse-anti-human FAK antibody (Cell Signaling Technology, #9102) in 3% (w/v) BSA/TBS-T, (2) 1:5,000 dilution goat-anti-mouse horseradish-conjugated secondary antibody in 1% (w/v) BSA/TBS-T. Phospho-FAK: (1) 1:300 dilution mouse-anti-human p-FAK antibody (Cell Signaling Technology) in 3% (w/v) BSA/TBS-T, (2) 1:5,000 dilution goat-antimouse horseradish-conjugated secondary antibody in 1% (w/v) BSA/TBS-T. Differences in blotting efficiency and protein loading were normalized by using a primary antibody against glyceraldehyde-3-phosphate dehydrogenase (GAPDH, 1:10,000 dilution in 1% (w/v) BSA/TBS-T, at RT for 45 min (Millipore, Schwalbach, Germany) and a secondary horseradish-conjugated goat-anti-mouse antibody (1:10,000 dilution in 1% (w/v) BSA/TBS-T, 40 min at RT).
The integrin binding assay was done to assess the specificity and subtype-selective affinity of L1–L5 and their respective Cy5.5-conjugated ligands by using isolated and purified integrins in cell-free ligand binding assays, as previously published.[59]Table 2 summarizes the used ECM ligands, integrins, and antibodies. In brief, flat-bottom 96-well plates were coated overnight at 4 °C with the natural ECM integrin ligands, vitronectin (for αvβ3-directed ligands), fibronectin (for α5β1-directed ligands), or LAP of TGF-β1 (for αvβ6-directed ligands) (100 μL/well in buffer containing 15 mM Na2CO3, 35 mM NaHCO3, pH 9.6). Subsequently, each well was washed in PBS, 0.01% (v/v) Tween 20, 137 mM NaCl, 2.7 mM KCl, 10 mM Na2HPO4, 2 mM KH2PO4, pH 7.4 (PBS-T), and blocked for unspecific binding events for 1 h at RT in 20 mM Tris–HCl, pH 7.5, 150 mM NaCl, 1 mM CaCl2, 1 mM MgCl2, 1 mM MnCl2, and 1% (w/v) BSA. Meanwhile, dilution series of the different integrin ligands and the internal standards were prepared, ranging from 20 μM to 256 pM in 1:5 dilution steps. […]

The next test concerns αvβ6- OV-MZ-6 cells. The test can be described thus: Cellular uptake of Cy5.5-labeled ligands, OV-MZ-6 control cells. As to conditions: 1 μM Cy5.5-labeled ligand. It is filed as cell-based. The procedure:
(§1) For intracellular drug delivery, integrin ligands designed as drug-conjugated vehicles have to be easily and selectively internalized by tumor cells (over)expressing the respective targeted integrin subtype. […] It should be noted here that HN, OV-MZ-6, and RKO cells also express low αvβ3 expression levels.
(§2) Microchamber cell culture slides were coated with fibronectin (2 μg/mL), followed by cell seeding at a density of 50,000 cells/well. After 24 h of cultivation, cells were treated with integrin ligands L1-Cy5.5 to L5-Cy5.5 (1 μM in 0.01% (w/v) CaCl2 and 0.1% (w/v) BSA in PBS; 250 μL/well) for 3, 30, 60, or 300 min at 37 °C. The cells were washed in PBS/0.01% (w/v) CaCl2 (6 × 800 μL) and the fluorescence signal intensity recorded using the LSM 700 microscope (Zeiss, Jena, Germany). CellMask Green Plasma Membrane Stain was used to stain the cell membrane; nuclei were stained with Hoechst 33342.

The target in test [1] is T3, human αvβ6-integrin (Homo sapiens, UniProt P06756+P18564).
T3 construct: purchased R&D 3817-AV-050
Put plainly: ELISA-type solid-phase binding assay: soluble αvβ6 competing for immobilized LAP (TGF-β). As to conditions: competitive ELISA-type assay, referenced to internal standard RTDLDSLRT

A further test deals with HN cells (αvβ6+). Put plainly: Time-dependent cellular uptake of Cy5.5-labeled ligands, HN cells. As to conditions: 1 μM, within 3 min. It is filed as cell-based.
Source text: as §1
(§3) Figure 7 Cellular uptake of Cy5.5-labeled integrin ligands. […] Nuclei were costained with Hoechst 33342 (blue signal) and cell membranes with CellMask Green (green signal). Merge of stains (yellow signal) indicated colocalization of ligands at the cell membrane. Scale bar: 50 μm.
as §2

The target in test [2] is human α5β1-integrin (human) (UniProt P08648). Put plainly: ELISA; competitive ELISA-type solid-phase assay: human fibronectin (0.5 μg/mL) coated on the plate overnight at 4 °C, soluble human α5β1 (2.0 μg/mL) added with a dilution series of the ligand (20 μM to 256 pM), 1 h at RT; blocked in 20 mM Tris-HCl pH 7.5, 150 mM NaCl, 1 mM CaCl2, 1 mM MgCl2, 1 mM MnCl2, 1% BSA; bound integrin detected with anti-CD49e; IC50 referenced to cilengitide.

The test system of test [3] is M21 (αvβ3+), HN (αvβ6+), RKO (α5β1+) cells. Put plainly: Time-dependent cellular uptake of Cy5.5-labeled ligands in cells overexpressing the targeted integrin. The test is classed as cell-based. As to conditions: state within 30 min, Cy5.5-conjugated ligands, target integrin-expressing cells.
Source text: as §1, §3, §2

Test [4] deals with human α5β1-integrin (human) (UniProt P08648).
The target in test [5] is T4, human αvβ6-integrin (human, UniProt P06756 31-1048; P18564 22-709).
T4 construct: integrin alpha-V, human, chain of the soluble purified αvβ6 heterodimer; integrin beta-6, human, chain of the soluble purified αvβ6 heterodimer; also called integrin αvβ6; source: bought: R&D, #3817-AV-050
The test can be described thus: ELISA; competitive ELISA-type solid-phase assay: LAP of TGF-β1 (0.4 μg/mL) coated on the plate overnight at 4 °C, soluble human αvβ6 (0.5 μg/mL) added with a dilution series of the ligand (20 μM to 256 pM), 1 h at RT; blocked in 20 mM Tris-HCl pH 7.5, 150 mM NaCl, 1 mM CaCl2, 1 mM MgCl2, 1 mM MnCl2, 1% BSA; bound integrin detected with anti-αv; IC50 referenced to …. As to conditions: both partners purified.

Where [6] appears, read: competitive ELISA-type assay, referenced to internal standard cilengitide (L2).

With `COc1ccnc(NCCCOc2ccc(C[C@@H](CC(=O)O)NC(=O)c3ccc(OCCCNC(=O)CCCCCNC(=O)CCCCC[N+]4=C(/C=C/C=C/C=C5/N(C)c6ccc7ccccc7c6C5(C)C)C(C)(C)c5c4ccc4ccccc54)cc3)cc2)c1` [L1-Cy5.5], the results for the 50% inhibitory concentration (IC50) on human αvβ3-integrin, at human α5β1-integrin (setting [6]) and on human αvβ6-integrin [1] were 1.02 ± 0.02 nM, over 1000 nM and over 1000 nM, respectively. The “Binding / intracellular uptake in control cells” value (shortened to “Binding / intracellular uptake”) in the test on αvβ6- OV-MZ-6 cells is “only minor intracellular traces”.

On to `CC(C)C[C@@H]1NC(=O)[C@H](CC(=O)O)NC(=O)CNC(=O)[C@H](CCCNC(=N)N)NC(=O)[C@H](Cc2ccccc2)NC(=O)[C@H](CCCCNC(=O)CCCCCNC(=O)CCCCC[N+]2=C(/C=C/C=C/C=C3/N(C)c4ccc5ccccc5c4C3(C)C)C(C)(C)c3c2ccc2ccccc32)N(C)C(=O)[C@H]2CCCN2C(=O)[C@H](Cc2ccccc2)NC(=O)[C@H](C)NC1=O` [L3-Cy5.5], for which, in the test on HN cells (αvβ6+), the “Localization of Cy5.5-labeled ligand” value is “already intracellularly visible”. This molecule also came in with an IC50 on human α5β1-integrin (setting [6]) of over 1000 nM. For the same molecule, the “Binding / intracellular uptake” value with αvβ6- OV-MZ-6 cells is reported as “did not bind”.

With `CN1/C(=C/C=C/C=C/C2=[N+](CCCCCC(=O)NCCCCCC(=O)N[C@@H](CCCCNC(=O)[C@@H]3CCC(=O)N[C@@H](CCCNC(=N)N)C(=O)NCC(=O)N[C@@H](CC(=O)O)C(=O)N[C@@H](C4CCCCC4)C(=O)N3)C(N)=O)c3ccc4ccccc4c3C2(C)C)C(C)(C)c2c1ccc1ccccc21` [L4-Cy5.5], the concentration for half-maximal inhibition (IC50) on human α5β1-integrin was over 1000 nM. The “Binding / intracellular uptake” value with αvβ6- OV-MZ-6 cells was “did not bind”.

As to `Cc1cc(OCCCNC(=O)CCCCCNC(=O)CCCCC[N+]2=C(/C=C/C=C/C=C3/N(C)c4ccc5ccccc5c4C3(C)C)C(C)(C)c3c2ccc2ccccc32)cc(C)c1C(=O)N[C@@H](CNC(=O)CNC(=O)c1cccc(NC(=N)N)c1)C(=O)O` [L5-Cy5.5], the half-inhibitory concentration (IC50) is over 1000 nM on human αvβ3-integrin, 4.69 ± 1 nM on human α5β1-integrin (setting [6]) and 154 ± 136 nM at human αvβ6-integrin [1].

For “L3-Cy5.5, the Cy5.5 conjugate of c(FRGDLAFp(NMe)K) (L3) (peptide)”, the concentration for half-maximal inhibition (IC50) in test [2] was over 1000 nM.

In turn, “L4-Cy5.5, the Cy5.5 conjugate of c(RGD-Chg-isoE)-CONH2 (L4) (peptide)” gave an IC50 in [2] of over 1000 nM.

For the molecule c(RGD-Chg-isoE)-CONH2 [L4], in [3], the “Endocytosis of Cy5.5-conjugated ligand” value is on record as “already completed”.

Consider cyclo(RGD[dF][NMeV]) [cilengitide, c(RGDf(NMe)V) (L2)], for which the p-FAK level by Western blot in OV-MZ-6 cells (low αvβ3, α5β1+) with 1 nM cilengitide, 5 to 60 min in test [4] turned out to be 2.2 fold.

B1: L4-Cy5.5, the Cy5.5 conjugate of c(RGD-Chg-isoE)-CONH2 (L4) (peptide)
chain: cyclo(RGD[Chg][isoE])
modifications: not fully specified (C-terminus); printed as c(RGD-Chg-isoE)-CONH2; also: Cy5.5 attached via Ahx linker, site not given here
In the test with human αvβ6-integrin [5], B1 displayed an IC50 of 7.63 ± 0.83 nM.

The record behind these values is publication PMC11874007, “Switching Roles—Exploring Concentration-Dependent Agonistic versus Antagonistic Behavior of Integrin Ligands” (Journal of Medicinal Chemistry, 2025).
